# According to PubChem BioAssay (NCI):
#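 Results reflect a 48-hour exposure of cells in 96-well plates to compound at five concentrations. GI50: concentration for 50% inhibition of growth. TGI denotes the concentration required for complete inhibition of growth.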
# Columns and labels:
# Assay in all cases: NCI anticancer screen, dose series, 48 h
# A498 renal = tested on: A498 renal
# SF-268 CNS = tested on: SF-268 CNS
# OVCAR-8 ovarian = tested on: OVCAR-8 ovarian
# HT29 colon = tested on: HT29 colon
# ACHN renal = tested on: ACHN renal
# BT-549 breast = tested on: BT-549 breast
# SF-295 CNS = tested on: SF-295 CNS
# MDA-MB-435 = tested on: MDA-MB-435
# SK-MEL-2 melanoma = tested on: SK-MEL-2 melanoma
# U251 CNS = tested on: U251 CNS
# HOP-62 NSCLC = tested on: HOP-62 NSCLC
# SR leukemia = tested on: SR leukemia
# NCI-H522 lung = tested on: NCI-H522 lung
# SK-MEL-5 melanoma = tested on: SK-MEL-5 melanoma
# COLO 205 colon = tested on: COLO 205 colon
# OVCAR-4 ovarian = tested on: OVCAR-4 ovarian
# NCI-H460 lung = tested on: NCI-H460 lung
# HS 578T breast = tested on: HS 578T breast
# SF-539 CNS = tested on: SF-539 CNS
# CCRF-CEM leukemia = tested on: CCRF-CEM leukemia
# MOLT-4 leukemia = tested on: MOLT-4 leukemia
# CAKI-1 renal = tested on: CAKI-1 renal
# HOP-92 NSCLC = tested on: HOP-92 NSCLC
# MCF7 breast = tested on: MCF7 breast
# NCI-H23 lung = tested on: NCI-H23 lung
# A549 NSCLC = tested on: A549 NSCLC
# HL-60(TB) leukemia = tested on: HL-60(TB) leukemia
# OVCAR-3 ovarian = tested on: OVCAR-3 ovarian
# SW-620 colon = tested on: SW-620 colon
# K-562 leukemia = tested on: K-562 leukemia
# SK-MEL-28 melanoma = tested on: SK-MEL-28 melanoma
# SK-OV-3 ovarian = tested on: SK-OV-3 ovarian
# SN12C renal = tested on: SN12C renal
# SNB-75 CNS = tested on: SNB-75 CNS
# OVCAR-5 ovarian = tested on: OVCAR-5 ovarian
# TK-10 renal = tested on: TK-10 renal
# HCC-2998 colon = tested on: HCC-2998 colon
# MDA-MB-231 breast = tested on: MDA-MB-231 breast
# UACC-257 melanoma = tested on: UACC-257 melanoma
# NCI/ADR-RES ovarian = tested on: NCI/ADR-RES ovarian
# RPMI-8226 leukemia = tested on: RPMI-8226 leukemia
# SNB-19 CNS = tested on: SNB-19 CNS
# M14 melanoma = tested on: M14 melanoma
# LOX IMVI melanoma = tested on: LOX IMVI melanoma
# HCT-15 colon = tested on: HCT-15 colon
# UO-31 renal = tested on: UO-31 renal
# PC-3 prostate = tested on: PC-3 prostate
# HCT-116 colon = tested on: HCT-116 colon
# DU-145 prostate = tested on: DU-145 prostate
# IGROV1 ovarian = tested on: IGROV1 ovarian
# EKVX NSCLC = tested on: EKVX NSCLC
# 786-0 renal = tested on: 786-0 renal
# NCI-H226 lung = tested on: NCI-H226 lung
# KM12 colon = tested on: KM12 colon
# UACC-62 melanoma = tested on: UACC-62 melanoma
# MALME-3M melanoma = tested on: MALME-3M melanoma
compound,measurement,setting,value
CC[C@]1(O)C[C@H]2CN(CCc3c([nH]c4ccccc34)C(C(=O)OC)(c3cc4c(cc3OC)N(C)[C@H]3[C@@](O)(C(=O)OC)[C@H](OC(C)=O)[C@]5(CC)[C@@H]6C[C@@H]6CN6CC[C@]43[C@@H]65)C2)C1 (stereo partly specified),GI50,A498 renal,2.75 nM
same,TGI,A498 renal,12 nM
same,GI50,SF-268 CNS,14.5 nM
same,TGI,SF-268 CNS,10400 nM
same,GI50,OVCAR-8 ovarian,6.88 nM
same,TGI,OVCAR-8 ovarian,168 nM
same,GI50,HT29 colon,2.58 nM
same,TGI,HT29 colon,86.7 nM
same,GI50,ACHN renal,12 nM
same,TGI,ACHN renal,> 14300 nM
same,GI50,BT-549 breast,15.6 nM
same,TGI,BT-549 breast,683 nM
same,GI50,SF-295 CNS,2.33 nM
same,TGI,SF-295 CNS,393 nM
same,GI50,MDA-MB-435,< 1.43 nM
same,TGI,MDA-MB-435,2.19 nM
same,GI50,SK-MEL-2 melanoma,< 1.43 nM
same,TGI,SK-MEL-2 melanoma,143 nM
same,GI50,U251 CNS,3.44 nM
same,TGI,U251 CNS,527 nM
same,GI50,HOP-62 NSCLC,3.65 nM
same,TGI,HOP-62 NSCLC,> 9220 nM
same,GI50,SR leukemia,2.11 nM
same,TGI,SR leukemia,3490 nM
same,GI50,NCI-H522 lung,< 1.43 nM
same,TGI,NCI-H522 lung,5.28 nM
same,GI50,SK-MEL-5 melanoma,1.84 nM
same,TGI,SK-MEL-5 melanoma,31.3 nM
same,GI50,COLO 205 colon,2.46 nM
same,TGI,COLO 205 colon,9.37 nM
same,GI50,OVCAR-4 ovarian,26.6 nM
same,TGI,OVCAR-4 ovarian,> 7510 nM
same,GI50,NCI-H460 lung,4.26 nM
same,TGI,NCI-H460 lung,> 4610 nM
same,GI50,HS 578T breast,3.31 nM
same,GI50,SF-539 CNS,22.6 nM
same,TGI,SF-539 CNS,3040 nM
same,GI50,CCRF-CEM leukemia,4.56 nM
same,TGI,CCRF-CEM leukemia,> 12900 nM
same,GI50,MOLT-4 leukemia,7.4 nM
same,TGI,MOLT-4 leukemia,5430 nM
same,GI50,CAKI-1 renal,34.5 nM
same,TGI,CAKI-1 renal,6170 nM
same,GI50,HOP-92 NSCLC,6.82 nM
same,TGI,HOP-92 NSCLC,827 nM
same,GI50,MCF7 breast,1.9 nM
same,TGI,MCF7 breast,> 14300 nM
same,GI50,NCI-H23 lung,3 nM
same,TGI,NCI-H23 lung,498 nM
same,GI50,A549 NSCLC,3.72 nM
same,TGI,A549 NSCLC,> 14300 nM
same,GI50,HL-60(TB) leukemia,3.4 nM
same,TGI,HL-60(TB) leukemia,10.8 nM
same,GI50,OVCAR-3 ovarian,1.84 nM
same,TGI,OVCAR-3 ovarian,9.45 nM
same,GI50,SW-620 colon,5.64 nM
same,TGI,SW-620 colon,> 14300 nM
same,GI50,K-562 leukemia,2.66 nM
same,TGI,K-562 leukemia,2820 nM
same,GI50,SK-MEL-28 melanoma,3.05 nM
same,TGI,SK-MEL-28 melanoma,> 14300 nM
same,GI50,SK-OV-3 ovarian,2.85 nM
same,TGI,SK-OV-3 ovarian,17.6 nM
same,GI50,SN12C renal,8.38 nM
same,TGI,SN12C renal,> 14300 nM
same,GI50,SNB-75 CNS,4.37 nM
same,TGI,SNB-75 CNS,6360 nM
same,GI50,OVCAR-5 ovarian,9.74 nM
same,TGI,OVCAR-5 ovarian,> 6670 nM
same,GI50,TK-10 renal,40.4 nM
same,TGI,TK-10 renal,5620 nM
same,GI50,HCC-2998 colon,4.5 nM
same,TGI,HCC-2998 colon,278 nM
same,GI50,MDA-MB-231 breast,7.5 nM
same,TGI,MDA-MB-231 breast,239 nM
same,GI50,UACC-257 melanoma,5.09 nM
same,TGI,UACC-257 melanoma,> 8640 nM
same,GI50,NCI/ADR-RES ovarian,101 nM
same,TGI,NCI/ADR-RES ovarian,797 nM
same,GI50,RPMI-8226 leukemia,4.69 nM
same,TGI,RPMI-8226 leukemia,2070 nM
same,GI50,SNB-19 CNS,6.67 nM
same,TGI,SNB-19 CNS,> 14300 nM
same,GI50,M14 melanoma,3.65 nM
same,TGI,M14 melanoma,254 nM
same,GI50,LOX IMVI melanoma,2.73 nM
same,TGI,LOX IMVI melanoma,> 10300 nM
same,GI50,HCT-15 colon,37.4 nM
same,TGI,HCT-15 colon,> 14300 nM
same,GI50,UO-31 renal,76 nM
same,TGI,UO-31 renal,7660 nM
same,GI50,PC-3 prostate,2.96 nM
same,TGI,PC-3 prostate,> 11800 nM
same,GI50,HCT-116 colon,3.48 nM
same,TGI,HCT-116 colon,4130 nM
same,GI50,DU-145 prostate,< 1.43 nM
same,TGI,DU-145 prostate,> 14300 nM
same,GI50,IGROV1 ovarian,8.12 nM
same,TGI,IGROV1 ovarian,5110 nM
same,GI50,EKVX NSCLC,6.88 nM
same,TGI,EKVX NSCLC,> 14300 nM
same,GI50,786-0 renal,6.8 nM
same,TGI,786-0 renal,5000 nM
same,GI50,NCI-H226 lung,23.1 nM
same,TGI,NCI-H226 lung,> 1590 nM
same,GI50,KM12 colon,2.96 nM
same,TGI,KM12 colon,1260 nM
same,GI50,UACC-62 melanoma,2.2 nM
same,TGI,UACC-62 melanoma,> 14300 nM
same,GI50,MALME-3M melanoma,6.59 nM
same,TGI,MALME-3M melanoma,> 8730 nM
